US20050100940A1, “Novel FDRG protein and nucleic acid molecules and uses therefor” (Millennium Pharmaceuticals, Inc., priority 1998, published 2005)

Tests used:
[1] = tested on: Male Zucker diabetic fatty (fa/fa) rats; test: Chronic troglitazone treatment of Zucker diabetic fatty rats, Northern blots of white adipose tissue; type: in vivo, rat; conditions: 6 mg/kg/day in food, after 4 and 20 weeks of treatment
Method: This experiment describes analysis of FDRG mRNA levels in rats following chronic troglitazone treatment to determine if FDRG expresion is regulated by PPARγ in vivo. Male Zucker diabetic fatty (fa/fa) rats were treated with 6 mg/kg/day (1.2% w/v) troglitazone or placebo admixed with food starting at 6 weeks of age and continuing until 26 weeks. […] Northern blots were performed on RNA isolated from white adipose tissue of treated and untreated animals, four from each group, after 4 and 20 weeks of treatment. […] This was true even when normalized to aP2, a fat cell marker. Glut4 mRNA was also found to be elevated, in agreement with published reports by other groups. Ribosomal-associated 36B4 served as a loading control.

[2] = tested on: FDRG mRNA in NIH3T3 fibroblasts stably expressing PPARγ; test: Northern blot of FDRG mRNA in NIH3T3 fibroblasts stably expressing PPARγ; type: cell-based, murine
Method: NIH3T3 fibroblasts stably expressing PPARγ were treated with 10 μg/ml pioglitazone for 0, 2, and 4 hours.

[3] = tested on: lean or ob/ob mice; test: Intraperitoneal leptin administration versus pair-fed mice, FDRG expression in brown fat; type: in vivo, mouse; conditions: 12.5 mg/kg leptin i.p. twice daily
Method: In this study, 10 week old lean or ob/ob mice were divided into three groups. The first group was the control, intraperitoneally injected with 1.5 ml PBS twice daily. […] The third group, the pair-fed group, was diet restricted to match the amount of food intake by the leptin-injected group, and was also injected with PBS. The animals were sacrified at the end of one week. […] That may reflect a fundamental difference in leptin-induced dietary restriction versus externally imposed restriction, or may be consistent with a further downstream effect, e.g., leptin-mediated suppression of FDRG upregulation that would ordinarily result from reduced food intake.

Cc1c(C)c2c(c(C)c1O)CCC(C)(COc1ccc(CC3SC(=O)NC3=O)cc1)O2 (stereo not drawn) [troglitazone]
FDRG expression in vivo, upregulation versus controls [1]: 3-5 fold

CCc1ccc(CCOc2ccc(CC3SC(=O)NC3=O)cc2)nc1 (stereo not drawn) [pioglitazone]
Increase in FDRG mRNA ([2]; 10 μg/ml pioglitazone, within two hours, versus untreated cells): ≥ 10 fold

leptin: a protein secreted by fat cells, metabolic hormone
Dietary intake [3]: decrease in dietary intake
FDRG expression in brown fat (rise seen with restriction of caloric intake) ([3]; one week, versus pair-fed group): this rise is not seen

C[C@@H]1C[C@@H]([C@H](O)CC2CC(=O)NC(=O)C2)C(=O)[C@@H](C)C1 [cycloheximide]
Effect on FDRG mRNA by itself ([2]; 5 μg/ml cycloheximide alone): causes a rise in FDRG mRNA
Effect of pre-treatment on pioglitazone induction of FDRG mRNA ([2]; pre-treatment with 5 μg/ml cycloheximide, then 10 μg/ml pioglitazone): does not block this induction
